Measured values reported in patent US10301280B2 (Plexxikon Inc., priority 2012, dated 2019).

System: BaF3-FL KIT D816V or BaF3-FL KIT V560G/D816V cell line
Experiment: Cell-based assays of c-Kit mutant kinase activity (cell growth, ATPlite)
Details: at least one of the c-kit cell assays of Example 26
Procedure, shortened: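 BaF3 cells dependent on full-length human KIT (D816V or V560G/D816V) seeded at 1×10^4 cells/well in RPMI with 10% FBS. Eight-point 1:3 dilutions from 10 μM top final (0.2% DMSO), 3 days at 37° C., 5% CO2. ATPlite luminescence gave IC50.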

IC50, < 10 µM:
Cc1[nH]nc(C(=O)Nc2cnc3[nH]c(-c4ccnc(N5CCCC5)c4)cc3c2)c1C [P-2208, 4,5-dimethyl-N-(2-(2-(pyrrolidin-1-yl)pyridin-4-yl)-1H-pyrrolo[2,3-b]pyridin-5-yl)-1H-pyrazole-3-carboxamide]
Cc1[nH]nc(C(=O)Nc2cnc3[nH]c(-c4ccnc(N5CCCCC5)c4)cc3c2)c1C [P-2209, 4,5-dimethyl-N-(2-(2-(piperidin-1-yl)pyridin-4-yl)-1H-pyrrolo[2,3-b]pyridin-5-yl)-1H-pyrazole-3-carboxamide]
Cc1[nH]nc(C(=O)Nc2cnc3[nH]c(-c4ccnc(N5CCC(C)CC5)c4)cc3c2)c1C [P-2210, 4,5-dimethyl-N-(2-(2-(4-methylpiperidin-1-yl)pyridin-4-yl)-1H-pyrrolo[2,3-b]pyridin-5-yl)-1H-pyrazole-3-carboxamide]
Cc1[nH]nc(C(=O)Nc2cnc3[nH]c(-c4ccnc(C5CCNCC5)c4)cc3c2)c1C [P-2211, 4,5-dimethyl-N-(2-(2-(piperidin-4-yl)pyridin-4-yl)-1H-pyrrolo[2,3-b]pyridin-5-yl)-1H-pyrazole-3-carboxamide]
Cc1[nH]nc(C(=O)Nc2cnc3[nH]c(-c4ccnc(N5CCC(O)CC5)c4)cc3c2)c1C [P-2212, N-(2-(2-(4-hydroxypiperidin-1-yl)pyridin-4-yl)-1H-pyrrolo[2,3-b]pyridin-5-yl)-4,5-dimethyl-1H-pyrazole-3-carboxamide]
Cc1[nH]nc(C(=O)Nc2cnc3[nH]c(-c4ccnc(N5CCCC(O)C5)c4)cc3c2)c1C (stereo not drawn) [P-2213, N-(2-(2-(3-hydroxypiperidin-1-yl)pyridin-4-yl)-1H-pyrrolo[2,3-b]pyridin-5-yl)-4,5-dimethyl-1H-pyrazole-3-carboxamide]
CC(=O)N1CCN(c2cc(-c3cc4cc(NC(=O)c5n[nH]c(C)c5C)cnc4[nH]3)ccn2)CC1 [P-2214, N-(2-(2-(4-acetylpiperazin-1-yl)pyridin-4-yl)-1H-pyrrolo[2,3-b]pyridin-5-yl)-4,5-dimethyl-1H-pyrazole-3-carboxamide]
CC(C)=CC(=O)N1CCN(c2cc(-c3cc4cc(NC(=O)c5n[nH]c(C)c5C)cnc4[nH]3)ccn2)CC1 [P-2215, 4,5-dimethyl-N-(2-(2-(4-(3-methylbut-2-enoyl)piperazin-1-yl)pyridin-4-yl)-1H-pyrrolo[2,3-b]pyridin-5-yl)-1H-pyrazole-3-carboxamide]
Cc1[nH]nc(C(=O)Nc2cnc3[nH]c(-c4ccnc(C(=O)N5CCOCC5)c4)cc3c2)c1C [P-2216, 4,5-dimethyl-N-(2-(2-(morpholine-4-carbonyl)pyridin-4-yl)-1H-pyrrolo[2,3-b]pyridin-5-yl)-1H-pyrazole-3-carboxamide]
Cc1[nH]nc(C(=O)Nc2cnc3[nH]c(-c4ccnc(C(=O)N5CCN(C)CC5)c4)cc3c2)c1C [P-2217, 4,5-dimethyl-N-(2-(2-(4-methylpiperazine-1-carbonyl)pyridin-4-yl)-1H-pyrrolo[2,3-b]pyridin-5-yl)-1H-pyrazole-3-carboxamide]
Cc1[nH]nc(C(=O)Nc2cnc3[nH]c(-c4ccnc(C(=O)N5CCCC5)c4)cc3c2)c1C [P-2218, 4,5-dimethyl-N-(2-(2-(pyrrolidine-1-carbonyl)pyridin-4-yl)-1H-pyrrolo[2,3-b]pyridin-5-yl)-1H-pyrazole-3-carboxamide]
Cc1[nH]nc(C(=O)Nc2cnc3[nH]c(-c4ccnc(C(=O)N5CCSCC5)c4)cc3c2)c1C [P-2219, 4,5-dimethyl-N-(2-(2-(thiomorpholine-4-carbonyl)pyridin-4-yl)-1H-pyrrolo[2,3-b]pyridin-5-yl)-1H-pyrazole-3-carboxamide]
COCCNC(=O)c1cc(-c2cc3cc(NC(=O)c4n[nH]c(C)c4C)cnc3[nH]2)ccn1 [P-2220, 4-(5-(4,5-dimethyl-1H-pyrazole-3-carboxamido)-1H-pyrrolo[2,3-b]pyridin-2-yl)-N-(2-methoxyethyl)picolinamide]
Cc1[nH]nc(C(=O)Nc2cnc3[nH]c(-c4ccnc(C(=O)NCCN(C)C)c4)cc3c2)c1C [P-2221, 4-(5-(4,5-dimethyl-1H-pyrazole-3-carboxamido)-1H-pyrrolo[2,3-b]pyridin-2-yl)-N-(2-(dimethylamino)ethyl)picolinamide]
CONC(=O)c1cc(-c2cc3cc(NC(=O)c4n[nH]c(C)c4C)cnc3[nH]2)ccn1 [P-2223, 4-(5-(4,5-dimethyl-1H-pyrazole-3-carboxamido)-1H-pyrrolo[2,3-b]pyridin-2-yl)-N-methoxypicolinamide]
Cc1[nH]nc(C(=O)Nc2cnc3[nH]c(-c4ccnc(C(=O)N(C)C)c4)cc3c2)c1C [P-2224, 4-(5-(4,5-dimethyl-1H-pyrazole-3-carboxamido)-1H-pyrrolo[2,3-b]pyridin-2-yl)-N,N-dimethylpicolinamide]
Cc1[nH]nc(C(=O)Nc2cnc3[nH]c(-c4ccnc(C(=O)NCCN5CCOCC5)c4)cc3c2)c1C [P-2225, 4-(5-(4,5-dimethyl-1H-pyrazole-3-carboxamido)-1H-pyrrolo[2,3-b]pyridin-2-yl)-N-(2-morpholinoethyl)picolinamide]
Cc1[nH]nc(C(=O)Nc2cnc3[nH]c(-c4ccnc(C(=O)NCCN5CCN(C)CC5)c4)cc3c2)c1C [P-2226, 4-(5-(4,5-dimethyl-1H-pyrazole-3-carboxamido)-1H-pyrrolo[2,3-b]pyridin-2-yl)-N-(2-(4-methylpiperazin-1-yl)ethyl)picolinamide]
Cc1[nH]nc(C(=O)Nc2cnc3[nH]c(-c4ccnc(C(=O)NCCC#N)c4)cc3c2)c1C [P-2227, N-(2-cyanoethyl)-4-(5-(4,5-dimethyl-1H-pyrazole-3-carboxamido)-1H-pyrrolo[2,3-b]pyridin-2-yl)picolinamide]
Cc1[nH]nc(C(=O)Nc2cnc3[nH]c(-c4ccnc(C(=O)NCC(C)C)c4)cc3c2)c1C [P-2228, 4-(5-(4,5-dimethyl-1H-pyrazole-3-carboxamido)-1H-pyrrolo[2,3-b]pyridin-2-yl)-N-isobutylpicolinamide]
Cc1[nH]nc(C(=O)Nc2cnc3[nH]c(-c4ccnc(C(=O)NC(C)C)c4)cc3c2)c1C [P-2229, 4-(5-(4,5-dimethyl-1H-pyrazole-3-carboxamido)-1H-pyrrolo[2,3-b]pyridin-2-yl)-N-isopropylpicolinamide]
CCN(CC)C(=O)c1cc(-c2cc3cc(NC(=O)c4n[nH]c(C)c4C)cnc3[nH]2)ccn1 [P-2230, 4-(5-(4,5-dimethyl-1H-pyrazole-3-carboxamido)-1H-pyrrolo[2,3-b]pyridin-2-yl)-N,N-diethylpicolinamide]
Cc1c(C(=O)Nc2cnc3[nH]c(-c4ccccc4)cc3c2)n[nH]c1C(F)(F)F [P-2231, 4-methyl-N-(2-phenyl-1H-pyrrolo[2,3-b]pyridin-5-yl)-5-(trifluoromethyl)-1H-pyrazole-3-carboxamide]
O=C(Nc1cnc2[nH]c(-c3ccccc3)cc2c1)c1n[nH]c(C(F)(F)F)c1Cl [P-2232, 4-chloro-N-(2-phenyl-1H-pyrrolo[2,3-b]pyridin-5-yl)-5-(trifluoromethyl)-1H-pyrazole-3-carboxamide]
O=C(Nc1cnc2[nH]c(-c3ccccc3)cc2c1)c1n[nH]c(Cl)c1C(F)(F)F [P-2233, 5-chloro-N-(2-phenyl-1H-pyrrolo[2,3-b]pyridin-5-yl)-4-(trifluoromethyl)-1H-pyrazole-3-carboxamide]
Cc1c(C(=O)Nc2cnc3[nH]c(-c4ccccc4)cc3c2)n[nH]c1C(F)F [P-2234, 5-(difluoromethyl)-4-methyl-N-(2-phenyl-1H-pyrrolo[2,3-b]pyridin-5-yl)-1H-pyrazole-3-carboxamide]
Cc1[nH]nc(C(=O)Nc2cnc3[nH]c(-c4ccccc4)cc3c2)c1C(F)F [P-2235, 4-(difluoromethyl)-5-methyl-N-(2-phenyl-1H-pyrrolo[2,3-b]pyridin-5-yl)-1H-pyrazole-3-carboxamide]
O=C(Nc1cnc2[nH]c(-c3ccccc3)cc2c1)c1n[nH]c(Cl)c1C(F)F [P-2236, 5-chloro-4-(difluoromethyl)-N-(2-phenyl-1H-pyrrolo[2,3-b]pyridin-5-yl)-1H-pyrazole-3-carboxamide]
O=C(Nc1cnc2[nH]c(-c3ccccc3)cc2c1)c1n[nH]c(C(F)F)c1Cl [P-2237, 4-chloro-5-(difluoromethyl)-N-(2-phenyl-1H-pyrrolo[2,3-b]pyridin-5-yl)-1H-pyrazole-3-carboxamide]
COc1ncccc1-c1cc2cc(NC(=O)c3n[nH]c(C)c3C)cnc2[nH]1 [P-2238, N-(2-(2-methoxypyridin-3-yl)-1H-pyrrolo[2,3-b]pyridin-5-yl)-4,5-dimethyl-1H-pyrazole-3-carboxamide]
CCOc1ncccc1-c1cc2cc(NC(=O)c3n[nH]c(C)c3C)cnc2[nH]1 [P-2239, N-(2-(2-ethoxypyridin-3-yl)-1H-pyrrolo[2,3-b]pyridin-5-yl)-4,5-dimethyl-1H-pyrazole-3-carboxamide]
Cc1[nH]nc(C(=O)Nc2cnc3[nH]c(-c4cccnc4OC(F)F)cc3c2)c1C [P-2240, N-(2-(2-(difluoromethoxy)pyridin-3-yl)-1H-pyrrolo[2,3-b]pyridin-5-yl)-4,5-dimethyl-1H-pyrazole-3-carboxamide]
Cc1[nH]nc(C(=O)Nc2cnc3[nH]c(-c4cccnc4C(F)(F)F)cc3c2)c1C [P-2241, 4,5-dimethyl-N-(2-(2-(trifluoromethyl)pyridin-3-yl)-1H-pyrrolo[2,3-b]pyridin-5-yl)-1H-pyrazole-3-carboxamide]
